Measured values taken from the NIST ThermoML archive (doi:10.1021/je034254m).

Assay: excess molar enthalpy (molar enthalpy of mixing); xn = mol fraction of the nth substance listed
Conditions: Liquid, Flow calorimetry

CN1CCCC1=O [N-methylpyrrolidone] + CO
393.15 K, 1790 kPa
Conditions | excess molar enthalpy [kcal/mol]
x2 = 0.0576 | -0.0354
x2 = 0.1114 | -0.0657
x2 = 0.2093 | -0.113
x2 = 0.2959 | -0.146
x2 = 0.3732 | -0.168
x2 = 0.4425 | -0.18
x2 = 0.5051 | -0.184
x2 = 0.5619 | -0.183
x2 = 0.6136 | -0.177
x2 = 0.6609 | -0.167
x2 = 0.7043 | -0.157
x2 = 0.7443 | -0.143
x2 = 0.7813 | -0.128
x2 = 0.8156 | -0.113
x2 = 0.8475 | -0.0968
x2 = 0.8772 | -0.0817
x2 = 0.905 | -0.0652
x2 = 0.931 | -0.0488
x2 = 0.9554 | -0.0323
x2 = 0.9784 | -0.016
x2 = 0.9893 | -0.00837

O=S1(=O)CCCC1 [sulfolane] + O
413.15 K, 1820 kPa
Conditions | excess molar enthalpy [kcal/mol]
x2 = 0.0621 | 0.0968
x2 = 0.1183 | 0.17
x2 = 0.2159 | 0.284
x2 = 0.3676 | 0.405
x2 = 0.48 | 0.443
x2 = 0.5667 | 0.445
x2 = 0.6355 | 0.428
x2 = 0.6915 | 0.401
x2 = 0.738 | 0.37
x2 = 0.7772 | 0.337
x2 = 0.8395 | 0.272
x2 = 0.8648 | 0.241
x2 = 0.887 | 0.211
x2 = 0.9067 | 0.181
x2 = 0.9243 | 0.152
x2 = 0.9401 | 0.125
x2 = 0.9544 | 0.0985
x2 = 0.9674 | 0.0727
x2 = 0.9792 | 0.0476
x2 = 0.99 | 0.0232
